The subject of this series is 4T1 murine mammary carcinoma. The series is described as follows: Orthotopic 4T1 murine mammary carcinoma model, lung metastasis. It is filed as in vivo, BALB/C mice. As for the experimental part:
4T1 cells are cultured with RPMI-1640 culture solution, wherein the concentration of added fetal calf serum is 10%, a penicillin/streptomycin double-antibody is diluted in the culture solution based on the ratio of 1:100, and the cells are cultured in a thermostatic incubator which contains 5% CO2 and has a saturation temperature of 37° C. The cells are subjected to passage every other 2-3 days based on the ratio of 1:3-1:5. BALB/C mice are randomly divided into 7 groups, and a fourth fat pad of the breast is inoculated with 1×10^5 4 T1 cells. Then 20 mg/kg, 40 mg/kg and 80 mg/kg […] and 4 mg/kg dalteparin are injected to each group respectively. Mice were observed daily. Body weights and tumor volumes were recorded three times per week during the experiment. Breast tumors are removed after continuous administration for 12 days, and then 4 mg/kg cisplatin is […] to each group from the 13th thy, once in every four days. On the 30th day, anesthesia is conducted, the mice are sacrificed, lungs and spleens are taken out, washed and weighted. Photos were taken and lung samples were fixed in 10% neutral for metastatic nodule count and HE staining

Setting [1] is: cisplatin alone or combined with dHG10092, compared with negative control group.

As for `N.N.[Cl][Pt][Cl]` [Cisplatin], under “cisplatin 4 mg/kg, alone or in a combination”, the body weight entry was “can cause weight reduction”. Moreover, under setting [1], the lung weight entry was “much lower” and the spleen weight result was “much lower”. For the same compound, the “lung tumor area range (HE staining)” value (cisplatin independently or with dHG10092) is reported as “remarkably reduce the lung tumor area range”.

Values taken from patent US20190151350A1, “DEPOLYMERIZED HOLOTHURIAN GLYCOSAMINOGLYCAN COMPOSITION AND PREPARATION METHOD AND APPLICATION THEREOF” (Suzhou Yi-hua Biomedical Technology co., Ltd, priority 2017, published 2019).
